Here are results for 26 molecules from ChEMBL document CHEMBL1153455, “N-(4-(4-(2,3-dichloro- or 2-methoxyphenyl)piperazin-1-yl)butyl)heterobiarylcarboxamides with functionalized linking chains as high affinity and enantioselective D3 receptor antagonists” (J Med Chem, 2009).

In one assay the target is D(1A) dopamine receptor (Homo sapiens, UniProt P21728). Put plainly: Displacement of [3H]SCH23390 from D1 receptor.
Assay [1] deals with T1, 5-hydroxytryptamine receptor 1A (Homo sapiens, UniProt P08908).
T1 sequence (P08908 whole entry): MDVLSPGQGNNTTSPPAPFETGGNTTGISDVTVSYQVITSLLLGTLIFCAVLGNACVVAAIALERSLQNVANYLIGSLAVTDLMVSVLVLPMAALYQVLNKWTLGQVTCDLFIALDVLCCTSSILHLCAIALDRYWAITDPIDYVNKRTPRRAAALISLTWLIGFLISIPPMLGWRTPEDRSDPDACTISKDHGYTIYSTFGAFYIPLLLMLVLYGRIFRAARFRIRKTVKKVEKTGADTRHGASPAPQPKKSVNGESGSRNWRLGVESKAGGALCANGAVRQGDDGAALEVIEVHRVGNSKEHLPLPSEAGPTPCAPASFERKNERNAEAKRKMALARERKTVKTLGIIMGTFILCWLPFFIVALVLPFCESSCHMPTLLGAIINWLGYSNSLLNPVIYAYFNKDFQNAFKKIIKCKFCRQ
Put plainly: Displacement of [3H]8-OH-DPAT from 5HT1A receptor.

The nature of a further assay: cells. Particulars: Homo sapiens, HEK293.
The target in a further assay is T2, D(4) dopamine receptor (Homo sapiens, UniProt P21917).
T2 sequence (P21917 whole entry): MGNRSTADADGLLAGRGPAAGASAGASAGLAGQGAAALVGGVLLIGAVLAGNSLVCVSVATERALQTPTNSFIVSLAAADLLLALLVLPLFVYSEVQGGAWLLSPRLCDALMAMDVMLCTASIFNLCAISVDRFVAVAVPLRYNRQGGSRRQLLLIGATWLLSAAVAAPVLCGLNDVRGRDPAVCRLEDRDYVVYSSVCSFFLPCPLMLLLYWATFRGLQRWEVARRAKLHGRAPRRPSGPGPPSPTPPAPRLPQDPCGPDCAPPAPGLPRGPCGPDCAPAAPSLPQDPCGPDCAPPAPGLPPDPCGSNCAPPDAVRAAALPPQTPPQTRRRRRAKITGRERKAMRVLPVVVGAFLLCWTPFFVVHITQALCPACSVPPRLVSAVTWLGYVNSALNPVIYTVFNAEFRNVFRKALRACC
Put plainly: biochemical.

Assay [2] concerns the target T3, D(3) dopamine receptor (Homo sapiens, UniProt P35462). Put plainly: biochemical.
The target in assay [3] is T3, D(3) dopamine receptor.
The target in assay [4] is T3, D(3) dopamine receptor. Put plainly: Agonist activity at human D3 receptor expressed in HEK293 cells assessed as stimulation of mitogenesis relative to quinpirole. In kind it is functional, cell-based. Details: concentration or dose not given beside the values.
The species entered for another assay is Homo sapiens. Kind of assay: Selectivity of IC50 for human D2 like receptor to IC50 for human D3 receptor.
A short description of assay [5]: Antagonist activity at human D3 receptor expressed in HEK293 cells assessed as inhibition of quinpirole-stimulated mitogenesis.

Sequence of D(1A) dopamine receptor (P21728 whole entry): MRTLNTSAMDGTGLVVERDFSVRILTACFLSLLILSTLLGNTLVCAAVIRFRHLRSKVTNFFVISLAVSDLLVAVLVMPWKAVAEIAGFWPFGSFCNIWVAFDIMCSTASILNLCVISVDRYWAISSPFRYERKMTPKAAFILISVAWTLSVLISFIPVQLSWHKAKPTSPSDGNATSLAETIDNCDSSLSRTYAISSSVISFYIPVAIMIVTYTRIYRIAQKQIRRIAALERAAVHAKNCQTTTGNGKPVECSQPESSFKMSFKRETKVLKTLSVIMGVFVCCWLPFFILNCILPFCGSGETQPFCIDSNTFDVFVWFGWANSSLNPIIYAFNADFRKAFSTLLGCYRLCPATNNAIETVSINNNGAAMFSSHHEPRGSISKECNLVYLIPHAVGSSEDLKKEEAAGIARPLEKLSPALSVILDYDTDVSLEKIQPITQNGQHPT
T3 sequence (P35462 whole entry): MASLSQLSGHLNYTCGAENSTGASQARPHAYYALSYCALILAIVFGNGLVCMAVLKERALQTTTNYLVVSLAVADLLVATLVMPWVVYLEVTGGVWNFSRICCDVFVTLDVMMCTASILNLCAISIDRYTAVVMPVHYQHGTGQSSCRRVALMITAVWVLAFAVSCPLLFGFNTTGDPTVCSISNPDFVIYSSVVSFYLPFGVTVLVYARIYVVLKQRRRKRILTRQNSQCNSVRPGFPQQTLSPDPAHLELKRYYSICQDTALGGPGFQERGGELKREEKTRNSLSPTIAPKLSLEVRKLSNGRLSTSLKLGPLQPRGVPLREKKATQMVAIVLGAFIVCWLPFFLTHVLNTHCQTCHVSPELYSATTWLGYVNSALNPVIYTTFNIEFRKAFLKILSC

One may read the Ki as a dissociation constant, usually derived from enzyme kinetics or from competition with a known ligand. For orientation: IC50 means the concentration at which inhibition is half-maximal. Turning to `O=C(NC/C=C/CN1CCN(c2cccc(Cl)c2Cl)CC1)c1cc2ccccc2o1`, the Ki amounted to 1.46 µM on D(1A) dopamine receptor and 58.8 nM in [1]. 111 nM corresponded to half-maximal inhibition in “cells” (IC50).
With `COc1ccccc1N1CCN(CC(O)CCNC(=O)c2cc3cc(I)ccc3o2)CC1` (stereo unspecified), the Ki on D(4) dopamine receptor worked out at 1290 nM; on D(3) dopamine receptor [2], 7.5 nM; on D(1A) dopamine receptor it was 3.69 µM. In the assay “cells”, the midpoint of inhibition, the IC50, lay at 405 nM.
With `O=C(NCCCCN1CCN(c2cccc(Cl)c2Cl)CC1)c1cc2cc(I)ccc2o1`, the Ki was determined as 1720 nM on D(4) dopamine receptor and 2.92 µM on D(1A) dopamine receptor. Besides, the IC50 in “cells” came out at 1030 nM.
Consider `O=C(NC/C=C/CN1CCN(c2cccc(Cl)c2Cl)CC1)c1cc2ccccc2[nH]1`, for which the Ki amounted to 640 nM on D(4) dopamine receptor, 0.44 nM on D(3) dopamine receptor [2], 0.91 µM on D(1A) dopamine receptor and 193 nM in assay [1]. For the same molecule, the IC50 in the assay “cells” stood at 175 nM.
As to `COc1ccccc1N1CCN(CCCCNC(=O)c2cc3ccccc3[nH]2)CC1`, the Ki on D(4) dopamine receptor came to 476 nM; at D(3) dopamine receptor [3], 0.32 nM.
In the case of `O=C(NCCC(O)CN1CCN(c2cccc(Cl)c2Cl)CC1)c1cc2cc(I)ccc2[nH]1` (stereo unspecified), the values for the Ki on D(4) dopamine receptor, on D(3) dopamine receptor [2] and at D(1A) dopamine receptor were over 10000 nM, 5.21 nM and over 10 µM, respectively. In addition, the Activity at D(3) dopamine receptor [4] was 26%.
For `COc1ccccc1N1CCN(CC(O)CCNC(=O)c2cc3ccccc3s2)CC1` (stereo unspecified), the affinity at D(1A) dopamine receptor, expressed as Ki, was 6.65 µM. Also, 146 nM corresponded to half-maximal inhibition in the assay “cells” (IC50).
For `COc1ccccc1N1CCN(C/C=C/CNC(=O)c2cc3ccccc3s2)CC1`, the Ki at D(3) dopamine receptor [2] turned out to be 2.61 nM; on D(1A) dopamine receptor, 0.678 µM.
For the molecule `COc1ccccc1N1CCN(CC(O)CCNC(=O)c2cc3ccccc3o2)CC1` (stereo unspecified), the results for the Ki at D(4) dopamine receptor, on D(3) dopamine receptor [2] and at D(1A) dopamine receptor were 2140 nM, 7.51 nM and over 10 µM, respectively.
On to `COc1ccc2[nH]c(C(=O)NCCC(O)CN3CCN(c4ccccc4OC)CC3)cc2c1` (stereo unspecified), for which the values for the Ki on D(4) dopamine receptor, on D(3) dopamine receptor [2] and at D(1A) dopamine receptor were 1530 nM, 2.32 nM and over 10 µM, respectively. In the assay filed under Homo sapiens, this molecule displayed a fold change (FC) of over 100.
In turn, `CCCOc1ccccc1N1CCN(CC(O)CCNC(=O)c2cc3ccccc3[nH]2)CC1` (stereo unspecified) gave a Ki on D(1A) dopamine receptor of 4.96 µM. The molecule also yielded an IC50 in the assay “cells” of 162 nM.
For `COc1ccccc1N1CCN(CCCCNC(=O)c2cc3ccccc3s2)CC1`, in the assay “cells”, the midpoint of inhibition, the IC50, lay at 21.4 nM. In addition, the fold change (FC) in the assay filed under Homo sapiens was 100.
Take `COc1ccccc1N1CCN(C/C=C/CNC(=O)c2cc3ccccc3o2)CC1`: the Ki at D(3) dopamine receptor [2] turned out to be 11.3 nM; at D(1A) dopamine receptor it was 0.99 µM.
Turning to `COc1ccccc1N1CCN(CC(O)CCNC(=O)c2cc3cc(F)ccc3[nH]2)CC1` (stereo unspecified), the figures for the Ki on D(4) dopamine receptor, at D(3) dopamine receptor [2] and at D(1A) dopamine receptor were 967 nM, 2.41 nM and 5.06 µM, respectively. The same molecule had an IC50 in the assay “cells” of 270 nM. Further, the fold change (FC) in the assay listed under Homo sapiens was found to be 100.
Take `COc1ccccc1N1CCN(CCCCNC(=O)c2cc3cc(I)ccc3o2)CC1`: the values for the Ki at D(4) dopamine receptor, on D(3) dopamine receptor [2] and at D(1A) dopamine receptor were 335 nM, 0.72 nM and 0.9 µM, respectively. Inhibition in the assay “cells” was half-maximal at 170 nM (IC50).
Regarding `O=C(NC/C=C/CN1CCN(c2cccc(Cl)c2Cl)CC1)c1cc2ccccc2s1`, the figures for the Ki (on D(1A) dopamine receptor; in assay [1]) were 1.73 µM and 388 nM, respectively. Also, the IC50 in “cells” stood at 254 nM; in [5], 9.62 nM.
Consider `O=C(NCC[C@@H](O)CN1CCN(c2cccc(Cl)c2Cl)CC1)c1cc2ccccc2[nH]1`, for which, at D(1A) dopamine receptor, the Ki was over 10 µM.
Turning to `O=C(NCC(O)CCN1CCN(c2cccc(Cl)c2Cl)CC1)c1cc2ccccc2[nH]1` (stereo unspecified), the Ki was 1040 nM on D(4) dopamine receptor, over 10 µM at D(1A) dopamine receptor and 58.3 nM in assay [1]. Also, the IC50 in “cells” amounted to 340 nM.
With `O=C(NCCC(O)CN1CCN(c2cccc(Cl)c2Cl)CC1)c1cc2ccccc2o1` (stereo unspecified), the results for the inhibition constant Ki at D(4) dopamine receptor, at D(3) dopamine receptor [2] and on D(1A) dopamine receptor were over 10000 nM, 6.11 nM and over 10 µM, respectively. In addition, on D(3) dopamine receptor [4], the Activity came to 22.6%.
Molecule `O=C(NCC[C@H](O)CN1CCN(c2cccc(Cl)c2Cl)CC1)c1cc2ccccc2[nH]1` displayed a Ki on D(1A) dopamine receptor of over 10 µM. Further, the Activity at D(3) dopamine receptor [4] was found to be 42.2%.
On to `COc1ccccc1N1CCN(CC(O)CCNC(=O)c2cc3ccccc3[nH]2)CC1` (stereo unspecified), for which the Ki on D(1A) dopamine receptor was over 10 µM; in [1], 132 nM. This molecule registered an IC50 in the assay “cells” of 427 nM.
Consider `COc1ccccc1N1CCN(CC(O)CCNC(=O)c2cc3cc(I)ccc3[nH]2)CC1` (stereo unspecified), for which the Ki at D(4) dopamine receptor is 455 nM; at D(3) dopamine receptor [2] it was 3.6 nM; on D(1A) dopamine receptor it was over 10 µM.
`O=C(NCCC(O)CN1CCN(c2cccc(Cl)c2Cl)CC1)c1cc2cc(F)ccc2[nH]1` (stereo unspecified): the Ki was over 5000 nM at D(4) dopamine receptor and over 10 µM at D(1A) dopamine receptor.
Take `COc1ccc2[nH]c(C(=O)NCCC(O)CN3CCN(c4cccc(Cl)c4Cl)CC3)cc2c1` (stereo unspecified): the Ki on D(4) dopamine receptor was over 10000 nM; on D(3) dopamine receptor [2] it was 1.2 nM; on D(1A) dopamine receptor it was over 10 µM. The fold change (FC) in the assay filed under Homo sapiens is over 100. The Activity at D(3) dopamine receptor [4] was 34.9%.
On to `COc1ccccc1N1CCN(CCC(O)CNC(=O)c2cc3ccccc3[nH]2)CC1` (stereo unspecified), for which the results for the inhibition constant (Ki) at D(4) dopamine receptor and on D(3) dopamine receptor [2] were 176 nM and 0.51 nM, respectively.
In the case of `O=C(NCCC(O)CN1CCN(c2cccc(Cl)c2Cl)CC1)c1cc2cc(I)ccc2o1` (stereo unspecified), the Ki at D(4) dopamine receptor was over 10000 nM; on D(3) dopamine receptor [2] it was 7.71 nM; on D(1A) dopamine receptor, over 10 µM. Moreover, the Activity on D(3) dopamine receptor [4] amounted to 23.6%.
